Reference: patent US9511073B2, “Aromatic amides and uses thereof” (TAXIS Pharmaceuticals, Inc., priority 2011, dated 2016)
Values after ≈ are worked out from the molar mass of the structure shown.

Tested on: Staphylococcus aureus (Isolate ID ATCC 29213)
Experiment: Bacterial assay: MIC by broth microdilution or agar dilution (CLSI), S. aureus ATCC 29213
Format: cell-based
Conditions: Staphylococcus aureus, ATCC29213, read-out: S. aureus MIC (μg/mL) Activity Range, S. aureus (ATCC29213)
Summary of the method: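 Activity is binned (A ≤0.25 μg/mL; B >0.25–1.0; C >1.0–16; D >16 μg/mL) from MICs determined per CLSI by broth microdilution or agar dilution, on S. aureus ATCC 29213 plus an FtsZ-G196A mutant strain.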

| Structure (SMILES) | MIC [µg/mL] |
| --- | --- |
| NC(=O)OCC(Oc1ccc(F)c(C(N)=O)c1F)c1nc(-c2ccc(C(F)(F)F)cc2)c(Cl)o1 (centres unmarked) [Compound 52, 2-(3-carbamoyl-2,4-difluorophenoxy)-2-(5-chloro-4-(4-(trifluoromethyl)phenyl)oxazol-2-yl)ethyl carbamate] | 0.25 to 1 (≈ 0.494 to 1.98 µM) |
| CNC(=O)CC(Oc1ccc(F)c(C(N)=O)c1F)c1nc(-c2ccc(C(F)(F)F)cc2)c(Br)o1 (centres unmarked) [Compound 87, 3-(1-(5-bromo-4-(4-(trifluoromethyl)phenyl)oxazol-2-yl)-3-(methylamino)-3-oxopropoxy)-2,6-difluorobenzamide] | 0.25 to 1 (≈ 0.456 to 1.82 µM) |
| N#Cc1ccc(-c2nc([C@@H](CO)Oc3ccc(F)c(C(N)=O)c3F)oc2Br)cn1 [Compound 249B, (R)-3-(1-(5-bromo-4-(6-cyanopyridin-3-yl)oxazol-2-yl)-2-hydroxyethoxy)-2,6-difluorobenzamide] | 1 to 16 (≈ 2.15 to 34.4 µM) |
| NC(=O)c1c(F)ccc(OC(c2cccnc2)c2nc(-c3ccc(Cl)cc3)c(Br)o2)c1F (centres unmarked) [Compound 99, 3-((5-bromo-4-(4-chlorophenyl)oxazol-2-yl)(pyridin-3-yl)methoxy)-2,6-difluorobenzamide] | 1 to 16 (≈ 1.92 to 30.7 µM) |
| NC(=O)c1c(F)ccc(OC(COC(=O)Nc2ccncc2)c2nc(-c3ccc(C(F)(F)F)cc3)c(Br)o2)c1F (centres unmarked) [Compound 176, 2-(5-bromo-4-(4-(trifluoromethyl)phenyl)oxazol-2-yl)-2-(3-carbamoyl-2,4-difluorophenoxy)ethyl pyridin-4-ylcarbamate] | 0.25 to 1 (≈ 0.399 to 1.59 µM) |
| NC(=O)c1c(F)ccc(OC(CO)c2nc(-c3ccc(Cl)cc3)cs2)c1F (centres unmarked) [Compound 13, 3-(1-(4-(4-chlorophenyl)thiazol-2-yl)-2-hydroxyethoxy)-2,6-difluorobenzamide] | 0.25 to 1 (≈ 0.609 to 2.43 µM) |
| COc1ccc(-c2nc(C(COC(C)=O)Oc3ccc(F)c(C(N)=O)c3F)oc2Br)cc1 (centres unmarked) [Compound 111, 2-(5-bromo-4-(4-methoxyphenyl)oxazol-2-yl)-2-(3-carbamoyl-2,4-difluorophenoxy)ethyl acetate] | 1 to 16 |
| Cn1ccnc1CNC(=O)OCC(Oc1ccc(F)c(C(N)=O)c1F)c1nc(-c2ccc(C(F)(F)F)cc2)c(Br)o1 (centres unmarked) [Compound 201, 2-(5-bromo-4-(4-(trifluoromethyl)phenyl)oxazol-2-yl)-2-(3-carbamoyl-2,4-difluorophenoxy)ethyl ((1-methyl-1H-imidazol-2-yl)methyl)carbamate] | 0.25 to 1 (≈ 0.388 to 1.55 µM) |
| Cn1cncc1CNC(=O)OCC(Oc1ccc(F)c(C(N)=O)c1F)c1nc(-c2ccc(C(F)(F)F)cc2)c(Br)o1 (centres unmarked) [Compound 195, 2-(5-bromo-4-(4-(trifluoromethyl)phenyl)oxazol-2-yl)-2-(3-carbamoyl-2,4-difluorophenoxy)ethyl ((1-methyl-1H-imidazol-5-yl)methyl)carbamate] | 1 to 16 (≈ 1.55 to 24.8 µM) |
| NC(=O)CCC(Oc1ccc(F)c(C(N)=O)c1F)c1nc(-c2ccc(C(F)(F)F)cc2)c(Br)o1 (centres unmarked) [Compound 101, 3-(4-amino-1-(5-bromo-4-(4-(trifluoromethyl)phenyl)oxazol-2-yl)-4-oxobutoxy)-2,6-difluorobenzamide] | 0.25 to 1 (≈ 0.456 to 1.82 µM) |
| NC(=O)c1c(F)ccc(OC(CNC(=O)c2ccccn2)c2nc(-c3ccc(C(F)(F)F)cc3)c(Br)o2)c1F (centres unmarked) [Compound 296, N-(2-(5-bromo-4-(4-(trifluoromethyl)phenyl)oxazol-2-yl)-2-(3-carbamoyl-2,4-difluorophenoxy)ethyl)picolinamide] | < 0.25 |
| CCOC(=O)C(Oc1ccc(F)c(C(N)=O)c1F)c1csc(-c2ccc(C(F)(F)F)cc2)n1 (centres unmarked) [Compound 125, ethyl 2-(3-carbamoyl-2,4-difluorophenoxy)-2-(2-(4-(trifluoromethyl)phenyl)thiazol-4-yl)acetate] | 0.25 to 1 (≈ 0.514 to 2.06 µM) |
| Cc1nnc(CC(Oc2ccc(F)c(C(N)=O)c2F)c2nc(-c3ccc(C(F)(F)F)cc3)c(Br)o2)o1 (centres unmarked) [Compound 120, 3-(1-(5-bromo-4-(4-(trifluoromethyl)phenyl)oxazol-2-yl)-2-(5-methyl-1,3,4-oxadiazol-2-yl)ethoxy)-2,6-difluorobenzamide] | 1 to 16 (≈ 1.74 to 27.9 µM) |
| CNC(=O)OCC(Oc1ccc(F)c(C(N)=O)c1F)c1nc(-c2ccc(C(F)(F)F)cc2)c(Br)o1 (centres unmarked) [Compound 113, 2-(5-bromo-4-(4-(trifluoromethyl)phenyl)oxazol-2-yl)-2-(3-carbamoyl-2,4-difluorophenoxy)ethyl methylcarbamate] | 0.25 to 1 (≈ 0.443 to 1.77 µM) |
| CN1CCN(C(=O)C(Oc2ccc(F)c(C(N)=O)c2F)c2nc(-c3ccc(Cl)cc3)cs2)CC1 (centres unmarked) [Compound 41, 3-(1-(4-(4-chlorophenyl)thiazol-2-yl)-2-(4-methylpiperazin-1-yl)-2-oxoethoxy)-2,6-difluorobenzamide] | 1 to 16 (≈ 1.97 to 31.6 µM) |
| NC(=O)c1c(F)ccc(OC(CO)c2nc(-c3ccccc3F)co2)c1F (centres unmarked) [Compound 223, 2,6-difluoro-3-(1-(4-(2-fluorophenyl)oxazol-2-yl)-2-hydroxyethoxy)benzamide] | > 16 |

| Structure (SMILES) | MIC [µg/mL] |
| --- | --- |
| COCCOc1ccc(-c2nc(C(CO)Oc3ccc(F)c(C(N)=O)c3F)oc2Br)cc1 (centres unmarked) [Compound 242, 3-(1-(5-bromo-4-(4-(2-methoxyethoxy)phenyl)oxazol-2-yl)-2-hydroxyethoxy)-2,6-difluorobenzamide] | 1 to 16 (≈ 1.95 to 31.2 µM) |
| COCC(Oc1ccc(F)c(C(N)=O)c1F)c1nc(-c2ccc(C(F)(F)F)cc2)c(Br)o1 (centres unmarked) [Compound 103, 3-(1-(5-bromo-4-(4-(trifluoromethyl)phenyl)oxazol-2-yl)-2-methoxyethoxy)-2,6-difluorobenzamide] | 0.25 to 1 (≈ 0.48 to 1.92 µM) |
| N#Cc1ccc(-c2nc(C(CO)Oc3ccc(F)c(C(N)=O)c3F)oc2Br)cc1 (centres unmarked) [Compound 80, 3-(1-(5-bromo-4-(4-cyanophenyl)oxazol-2-yl)-2-hydroxyethoxy)-2,6-difluorobenzamide] | 1 to 16 (≈ 2.15 to 34.5 µM) |
| Cn1cccc1CNC(=O)OCC(Oc1ccc(F)c(C(N)=O)c1F)c1nc(-c2ccc(C(F)(F)F)cc2)c(Br)o1 (centres unmarked) [Compound 202, 2-(5-bromo-4-(4-(trifluoromethyl)phenyl)oxazol-2-yl)-2-(3-carbamoyl-2,4-difluorophenoxy)ethyl ((1-methyl-1H-pyrrol-2-yl)methyl)carbamate] | 0.25 to 1 (≈ 0.389 to 1.55 µM) |
| NC(=O)c1c(F)ccc(OC(COC(=O)NCCN2CCCC2)c2nc(-c3ccc(C(F)(F)F)cc3)c(Br)o2)c1F (centres unmarked) [Compound 161, 2-(5-bromo-4-(4-(trifluoromethyl)phenyl)oxazol-2-yl)-2-(3-carbamoyl-2,4-difluorophenoxy)ethyl (2-(pyrrolidin-1-yl)ethyl)carbamate] | 1 to 16 (≈ 1.54 to 24.7 µM) |
| Cc1cc(CNC(=O)OCC(Oc2ccc(F)c(C(N)=O)c2F)c2nc(-c3ccc(C(F)(F)F)cc3)c(Br)o2)n(C)n1 (centres unmarked) [Compound 212, 2-(5-bromo-4-(4-(trifluoromethyl)phenyl)oxazol-2-yl)-2-(3-carbamoyl-2,4-difluorophenoxy)ethyl ((1,3-dimethyl-1H-pyrazol-5-yl)methyl)carbamate] | 0.25 to 1 (≈ 0.38 to 1.52 µM) |
| COC(=O)CCNC(=O)OCC(Oc1ccc(F)c(C(N)=O)c1F)c1nc(-c2ccc(C(F)(F)F)cc2)c(Br)o1 (centres unmarked) [Compound 141, methyl 3-(((2-(5-bromo-4-(4-(trifluoromethyl)phenyl)oxazol-2-yl)-2-(3-carbamoyl-2,4-difluorophenoxy)ethoxy)carbonyl)amino)propanoate] | < 0.25 |
| NC(=O)c1cccc(OC(CO)c2nc(-c3ccc(C(F)(F)F)cc3)c(Br)o2)c1F (centres unmarked) [Compound 159, 3-(1-(5-bromo-4-(4-(trifluoromethyl)phenyl)oxazol-2-yl)-2-hydroxyethoxy)-2-fluorobenzamide] | < 0.25 |
| CCOC(=O)CNC(=O)OCC(Oc1ccc(F)c(C(N)=O)c1F)c1nc(-c2ccc(C(F)(F)F)cc2)c(Br)o1 (centres unmarked) [Compound 140, ethyl 2-(((2-(5-bromo-4-(4-(trifluoromethyl)phenyl)oxazol-2-yl)-2-(3-carbamoyl-2,4-difluorophenoxy)ethoxy)carbonyl)amino)acetate] | 0.25 to 1 (≈ 0.393 to 1.57 µM) |
| NC(=O)c1c(F)ccc(O[C@H](COCCO)c2nc(-c3ccc(F)cc3F)c(Br)o2)c1F [Compound 265B, (R)-3-(1-(5-bromo-4-(2,4-difluorophenyl)oxazol-2-yl)-2-(2-hydroxyethoxy)ethoxy)-2,6-difluorobenzamide] | 1 to 16 (≈ 1.93 to 30.8 µM) |
| NC(=O)c1c(F)ccc(OC(CO)c2nc(-c3ccc(O)cc3)c(Br)o2)c1F (centres unmarked) [Compound 110, 3-(1-(5-bromo-4-(4-hydroxyphenyl)oxazol-2-yl)-2-hydroxyethoxy)-2,6-difluorobenzamide] | > 16 |
| Cn1cc(CNC(=O)OCC(Oc2ccc(F)c(C(N)=O)c2F)c2nc(-c3ccc(C(F)(F)F)cc3)c(Br)o2)cn1 (centres unmarked) [Compound 198, 2-(5-bromo-4-(4-(trifluoromethyl)phenyl)oxazol-2-yl)-2-(3-carbamoyl-2,4-difluorophenoxy)ethyl ((1-methyl-1H-pyrazol-4-yl)methyl)carbamate] | 0.25 to 1 (≈ 0.388 to 1.55 µM) |
| Cc1nccn1CCNC(=O)OCC(Oc1ccc(F)c(C(N)=O)c1F)c1nc(-c2ccc(C(F)(F)F)cc2)c(Br)o1 (centres unmarked) [Compound 190, 2-(5-bromo-4-(4-(trifluoromethyl)phenyl)oxazol-2-yl)-2-(3-carbamoyl-2,4-difluorophenoxy)ethyl (2-(2-methyl-1H-imidazol-1-yl)ethyl)carbamate] | 1 to 16 (≈ 1.52 to 24.3 µM) |
| Cc1ccc(CNC(=O)OCC(Oc2ccc(F)c(C(N)=O)c2F)c2nc(-c3ccc(C(F)(F)F)cc3)c(Br)o2)cn1 (centres unmarked) [Compound 214, 2-(5-bromo-4-(4-(trifluoromethyl)phenyl)oxazol-2-yl)-2-(3-carbamoyl-2,4-difluorophenoxy)ethyl ((6-methylpyridin-3-yl)methyl)carbamate] | 0.25 to 1 (≈ 0.381 to 1.53 µM) |
| NC(=O)c1c(F)ccc(OC(CNC(=O)CCC(=O)O)c2nc(-c3ccc(C(F)(F)F)cc3)c(Br)o2)c1F (centres unmarked) [Compound 302, 4-((2-(5-bromo-4-(4-(trifluoromethyl)phenyl)oxazol-2-yl)-2-(3-carbamoyl-2,4-difluorophenoxy)ethyl)amino)-4-oxobutanoic acid] | 1 to 16 (≈ 1.65 to 26.4 µM) |
| CC(=O)OCC(OC(C)=O)C(Oc1ccc(F)c(C(N)=O)c1F)c1nc(-c2ccc(C(F)(F)F)cc2)c(Br)o1 (centres unmarked) [Compound 219, 3-(5-bromo-4-(4-(trifluoromethyl)phenyl)oxazol-2-yl)-3-(3-carbamoyl-2,4-difluorophenoxy)propane-1,2-diyl diacetate] | > 16 |
